The values that follow come from article PMC6212544, “Identification and Characterization of Novel CFTR Potentiators” (Frontiers in Pharmacology, 2018).

This test deals with WT CFTR (Homo sapiens, UniProt P13569). The test is described as follows: Patch clamp, inside-out patches of CHO cells expressing WT CFTR. It counts as cell-based. Also noted: expressed in transfected cells; host or cells: CHO cells, transient, pcDNA plasmid. Particulars: 3 μM GLPG1837, PKA and 2 mM ATP. Here is the method:
A more complete description of the patch-clamp methodology can be found in a recent publication ([Lin et al., 2016]). Briefly, CHO (Chinese Hamster Ovary) cells were transiently transfected with pcDNA plasmids containing various CFTR constructs and pEGFP-C3. After transfection, cells were trypsinized and plated onto 35 mm tissue culture dishes dispersed with sterilized glass chips. Electrophysiological experiments were performed 3–7 days following transfection.
Patch-clamp experiments were performed at room temperature with an EPC-9 patch clamp amplifier (HEKA Instruments, Holliston, MA, United States). Recording microelectrodes were made from borosilicate capillary glass with a two-stage pipette puller (Narishige, Tokyo, Japan). The pipette tip was polished with a home-made microforge before use. The pipette solution contained (in mM) 140 NMDG (N-methyl-d-glucamine)-Cl (Fisher Biotec), 2 MgCl2 (Fisher Biotec, Perth, Australia), 5 CaCl2 (Fisher Biotec), and 10 HEPES (Fisher Biotec), pH 7.4, with NMDG (see [Lin et al., 2016] for details). The pipette resistance when filled with the regular pipette solution was 3–5 MΩ. Once the tip of the pipette and the cell membrane established GΩ resistance, the electrode was quickly pulled away from the cell to form an inside-out patch, where the cytosolic side of the membrane was exposed to the perfusion solution. Cells were perfused with a bath solution having (in mM) 145 NaCl (Fisher Biotec), 5 KCl (Fisher Biotec), 2 MgCl2, 1 CaCl2, 5 glucose (Fisher Biotec), 5 HEPES, and 20 sucrose (Fisher Biotec), pH 7.4, with NaOH (Fisher Biotec). […]
Microscopic kinetic analysis was performed with a program provided by Dr. László Csanády (Semmelweis University, Budapest, Hungary) ([Csanády, 2000]). Experiments were performed 4-5 times and averages and SEM were calculated. […]
(Patch clamp records ionic current or voltage across a cell membrane.)

WT CFTR, sequence (P13569 whole entry): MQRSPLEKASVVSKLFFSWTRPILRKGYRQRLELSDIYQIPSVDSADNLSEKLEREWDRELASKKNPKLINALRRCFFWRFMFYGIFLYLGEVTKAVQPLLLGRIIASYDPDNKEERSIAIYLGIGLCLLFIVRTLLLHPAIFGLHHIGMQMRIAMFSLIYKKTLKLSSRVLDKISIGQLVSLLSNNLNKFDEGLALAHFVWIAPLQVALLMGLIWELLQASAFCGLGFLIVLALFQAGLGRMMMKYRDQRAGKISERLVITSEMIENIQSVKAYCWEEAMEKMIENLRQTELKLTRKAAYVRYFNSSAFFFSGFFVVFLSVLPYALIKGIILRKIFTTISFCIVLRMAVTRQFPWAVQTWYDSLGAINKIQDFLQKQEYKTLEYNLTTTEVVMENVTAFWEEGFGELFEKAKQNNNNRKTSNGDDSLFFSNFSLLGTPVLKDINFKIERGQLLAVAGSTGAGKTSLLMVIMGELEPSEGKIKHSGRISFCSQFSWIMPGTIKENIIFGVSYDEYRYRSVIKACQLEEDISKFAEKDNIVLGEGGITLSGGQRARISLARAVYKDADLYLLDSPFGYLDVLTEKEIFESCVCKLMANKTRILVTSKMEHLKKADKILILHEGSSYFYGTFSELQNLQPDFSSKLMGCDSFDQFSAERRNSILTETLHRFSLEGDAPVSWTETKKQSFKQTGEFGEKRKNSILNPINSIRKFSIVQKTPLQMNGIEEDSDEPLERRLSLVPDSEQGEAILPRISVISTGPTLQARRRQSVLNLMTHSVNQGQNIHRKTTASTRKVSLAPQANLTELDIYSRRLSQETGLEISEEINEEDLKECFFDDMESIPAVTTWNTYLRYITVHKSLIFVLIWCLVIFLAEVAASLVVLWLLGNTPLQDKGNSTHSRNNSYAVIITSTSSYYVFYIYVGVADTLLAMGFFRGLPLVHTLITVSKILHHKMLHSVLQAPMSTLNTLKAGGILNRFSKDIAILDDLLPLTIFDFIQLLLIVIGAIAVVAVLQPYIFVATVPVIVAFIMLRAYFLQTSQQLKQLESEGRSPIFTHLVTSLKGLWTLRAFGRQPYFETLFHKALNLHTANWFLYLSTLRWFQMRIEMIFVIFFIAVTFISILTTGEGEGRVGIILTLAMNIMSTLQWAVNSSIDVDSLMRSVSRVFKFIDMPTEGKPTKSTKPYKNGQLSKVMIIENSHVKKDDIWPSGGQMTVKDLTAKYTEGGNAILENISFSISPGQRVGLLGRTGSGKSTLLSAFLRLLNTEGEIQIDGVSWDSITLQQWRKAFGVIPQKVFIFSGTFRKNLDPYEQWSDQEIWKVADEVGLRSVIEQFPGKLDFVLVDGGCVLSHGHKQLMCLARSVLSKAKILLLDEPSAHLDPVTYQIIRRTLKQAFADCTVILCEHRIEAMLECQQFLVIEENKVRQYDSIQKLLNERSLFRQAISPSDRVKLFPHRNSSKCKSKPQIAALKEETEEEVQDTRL

As for `CC1(C)Cc2c(sc(NC(=O)c3ccn[nH]3)c2C(N)=O)C(C)(C)O1` [GLPG1837, N-(3-Carbamoyl-5,5,7,7-tetramethyl-5,7-dihydro-4H-thieno[2,3-c]pyran-2-yl)-lH-pyrazole-5-carboxamide], the “Closed time constant τc, WT CFTR” value came to 0.29 ± 0.03 s and the “Open time constant τo, WT CFTR” value turned out to be 1.48 ± 0.41 s. Besides, the “Open probability Po, WT CFTR” value (pre-potentiator Po 0.39 ± 0.04) was determined as 0.78 ± 0.04.
